This is an account of results in US6858630B2, “Naphthimidazole derivatives and their use as thrombopoietin mimetics” (SmithKline Beecham Corporation, priority 1999, dated 2005).

In the test the target is T1, TPO receptor (Homo sapiens, UniProt P40238).
T1 construct: expressed in transfected cells; host or cells: murine BaF3 cells
T1 sequence (P40238 26-635): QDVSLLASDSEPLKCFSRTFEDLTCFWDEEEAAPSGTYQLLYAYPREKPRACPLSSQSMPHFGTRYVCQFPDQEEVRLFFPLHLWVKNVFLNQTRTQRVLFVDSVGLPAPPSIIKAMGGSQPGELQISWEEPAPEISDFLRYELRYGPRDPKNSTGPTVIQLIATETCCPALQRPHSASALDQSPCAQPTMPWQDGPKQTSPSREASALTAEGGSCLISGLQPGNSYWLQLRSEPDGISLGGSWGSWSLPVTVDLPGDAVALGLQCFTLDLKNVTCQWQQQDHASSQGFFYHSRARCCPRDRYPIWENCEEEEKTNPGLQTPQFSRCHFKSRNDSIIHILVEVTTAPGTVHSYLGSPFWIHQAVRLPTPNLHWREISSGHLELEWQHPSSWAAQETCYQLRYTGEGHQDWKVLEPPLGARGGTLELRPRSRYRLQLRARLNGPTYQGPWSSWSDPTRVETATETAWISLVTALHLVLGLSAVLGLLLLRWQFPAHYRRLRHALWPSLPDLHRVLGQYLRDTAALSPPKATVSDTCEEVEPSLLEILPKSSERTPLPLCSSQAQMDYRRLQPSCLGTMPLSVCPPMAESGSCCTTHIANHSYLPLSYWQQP
Briefly: Luciferase assay (TPO-responsive BaF3 cell line). The class given is cell-based, murine. The conditions noted are these: at a concentration of 2 uM; control is the maximal response to TPO. As for the experimental part: Compounds of the present invention were tested for potency as mimetics of the TPO receptor in a Luciferase assay such as described in Lamb, et al., Nucleic Acids Research 23; 3283-3289 (1995) and Seidel, et al., Proc. Natl. Acad. Sci., USA 92: 3041-3045 (1995) by substituting a TPO-responsive BaF3 cell line (Vigon et al. Proc. Natl. Acad. Sci. USA 1992, 89, 5640-5644) for the HepG2 cells utilized therein. The murine BaF3 cells express TPO receptors and closely match the pattern of STAT (signal transducers and activators of transcription) activation observed in primary murine and human bone marrow cells.

Consider `COc1c(-c2ccc(C)cc2)cccc1-c1nc2c(ccc3cc(S(=O)(=O)O)cc(O)c32)[nH]1.Cl` [Compound 14, 2-(3-[4′-Methylphenyl]-2-methoxyphenyl)-9-hydroxy-naphth[1,2-d]imidazole-7-sulfonic acid hydrochloride], for which the “activation, % of control in the luciferase assay” value is listed as “about 25%”.
